How the values were obtained:
Type in all cases: in vivo
[1] = system: ducksalad (Heteranthera limosa); test: Test B flooded paddy test; details: Flood, 250 g ai/ha; 0 to 100 scale where 0 is no effect and 100 is complete control; 13 to 15 d
How it was run: (§1)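 Percent control, visually estimated after 13–15 d in the greenhouse on a 0–100 basis, compares treated pots with untreated ones; compound was put into paddy water 3 cm above the soil when plants had two leaves.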

[2] = system: sedge, umbrella (small-flower umbrella sedge, Cyperus difformis); test: Test B flooded paddy test; details: Flood, 250 g ai/ha; 0 to 100 scale where 0 is no effect and 100 is complete control; 13 to 15 d
How it was run: as §1

[3] = system: barnyardgrass (Echinochloa crus-galli); test: Test B flooded paddy test; details: Flood, 250 g ai/ha; 0 to 100 scale where 0 is no effect and 100 is complete control; 13 to 15 d
How it was run: as §1

rice (Oryra sativa) = test: Test B flooded paddy test; details: Flood, 250 g ai/ha; 0 to 100 scale where 0 is no effect and 100 is complete control; 13 to 15 d
How it was run: as §1

[4] = system: pigweed (Amaranthus retroflexus); test: Test A postemergence; details: for Pigweed plant response rating: 125 g ai/ha, visual injury rating on 0 to 100 scale (0 no effect, 100 complete control), approx. 10 d; for Plant response rating, Pigweed: 500 g ai/ha
How it was run: (§2)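 Treatment is preemergence as a directed soil spray after planting, or postemergence at the one- to two-leaf stage, with test chemical in a non-phytotoxic solvent mixture plus surfactant. Plants stay in the greenhouse about 10 d before visual injury scoring on a 0 to 100 scale versus untreated controls.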

Kochia (Kochia scoparia) [5] = test: Test A postemergence; details: for Kochia plant response rating: 125 g ai/ha, visual injury rating on 0 to 100 scale (0 no effect, 100 complete control), approx. 10 d; for Plant response rating, Kochia: 500 g ai/ha
How it was run: as §2

[6] = system: blackgrass (Alopecurus myosuroides); test: Test A postemergence; details: for Blackgrass plant response rating: 125 g ai/ha, visual injury rating on 0 to 100 scale (0 no effect, 100 complete control), approx. 10 d; for Plant response rating, Blackgrass: 500 g ai/ha
How it was run: as §2

corn (Zea mays) = test: Test A postemergence; details: for Corn plant response rating: 125 g ai/ha, visual injury rating on 0 to 100 scale (0 no effect, 100 complete control), approx. 10 d; for Plant response rating, Corn: 500 g ai/ha
How it was run: as §2

[7] = system: ragweed (common ragweed, Ambrosia elatior); test: Test A postemergence; details: for Ragweed plant response rating: 125 g ai/ha, visual injury rating on 0 to 100 scale (0 no effect, 100 complete control), approx. 10 d; for Plant response rating, Ragweed: 500 g ai/ha
How it was run: as §2

[8] = system: wheat (Triticum aestivum); test: Test A postemergence; details: for Wheat plant response rating: 125 g ai/ha, visual injury rating on 0 to 100 scale (0 no effect, 100 complete control), approx. 10 d; for Plant response rating, Wheat: 500 g ai/ha
How it was run: as §2

[9] = system: giant foxtail (Setaria faberii); test: Test A postemergence; details: for Foxtail, Giant plant response rating: 125 g ai/ha, visual injury rating on 0 to 100 scale (0 no effect, 100 complete control), approx. 10 d; for Plant response rating, Foxtail, Giant: 500 g ai/ha
How it was run: as §2

[10] = system: barnyardgrass (Echinochloa crus-galli); test: Test A postemergence; details: for Barnyardgrass plant response rating: 125 g ai/ha, visual injury rating on 0 to 100 scale (0 no effect, 100 complete control), approx. 10 d; for Plant response rating, Barnyardgrass: 500 g ai/ha
How it was run: as §2

[11] = system: Galium (catchweed bedstraw, Galium aparine); test: Test A postemergence; details: for Galium plant response rating: 125 g ai/ha, visual injury rating on 0 to 100 scale (0 no effect, 100 complete control), approx. 10 d; for Plant response rating, Galium: 500 g ai/ha
How it was run: as §2

[12] = system: ryegrass, Italian (Italian ryegrass, Lolium multiflorum); test: Test A postemergence; details: for Ryegrass, Italian plant response rating: 125 g ai/ha, visual injury rating on 0 to 100 scale (0 no effect, 100 complete control), approx. 10 d; for Plant response rating, Ryegrass, Italian: 500 g ai/ha
How it was run: as §2

[13] = system: pigweed (Amaranthus retroflexus); test: Test A preemergence; details: for Plant response rating, Pigweed: 125 g ai/ha; for Pigweed plant response rating (0 to 100 scale, 0 is no effect, 100 is complete control): 500 g ai/ha, visual injury approx. 10 d
Kochia (Kochia scoparia) [14] = test: Test A preemergence; details: for Plant response rating, Kochia: 125 g ai/ha; for Kochia plant response rating (0 to 100 scale, 0 is no effect, 100 is complete control): 500 g ai/ha, visual injury approx. 10 d
How it was run: as §2

[15] = system: ragweed (common ragweed, Ambrosia elatior); test: Test A preemergence; details: for Plant response rating, Ragweed: 125 g ai/ha; for Ragweed plant response rating (0 to 100 scale, 0 is no effect, 100 is complete control): 500 g ai/ha, visual injury approx. 10 d
How it was run: as §2

[16] = system: giant foxtail (Setaria faberii); test: Test A preemergence; details: for Plant response rating, Foxtail, Giant: 125 g ai/ha; for Foxtail, Giant plant response rating (0 to 100 scale, 0 is no effect, 100 is complete control): 500 g ai/ha, visual injury approx. 10 d
How it was run: as §2

[17] = system: barnyardgrass (Echinochloa crus-galli); test: Test A preemergence; details: for Plant response rating, Barnyardgrass: 125 g ai/ha; for Barnyardgrass plant response rating (0 to 100 scale, 0 is no effect, 100 is complete control): 500 g ai/ha, visual injury approx. 10 d
How it was run: as §2

[18] = system: ryegrass, Italian (Italian ryegrass, Lolium multiflorum); test: Test A preemergence; details: for Plant response rating, Ryegrass, Italian: 125 g ai/ha; for Ryegrass, Italian plant response rating (0 to 100 scale, 0 is no effect, 100 is complete control): 500 g ai/ha, visual injury approx. 10 d
How it was run: as §2

[19] = Postemergence, 0 to 100 scale where 0 is no effect and 100 is complete control
[20] = postemergence, 0 to 100 scale, 0 no effect, 100 complete control
[21] = Preemergence, visual injury after approximately 10 d, 0 to 100 scale where 0 is no effect and 100 is complete control
[22] = preemergence, 0 to 100 scale (0 no effect, 100 complete control)

Row | Structure (SMILES) | Plant response rating, Ducksalad [1] | Plant response rating, Sedge, Umbrella [2] | Plant response rating, Barnyardgrass [3] | Plant response rating, Rice (rice (Oryra sativa)) | Pigweed plant response rating ([4]; postemergence) | Kochia plant response rating (Kochia (Kochia scoparia) [5]; postemergence) | Blackgrass plant response rating ([6]; postemergence) | Corn plant response rating (corn (Zea mays); postemergence) | Ragweed plant response rating ([7]; postemergence) | Wheat plant response rating ([8]; postemergence) | Foxtail, Giant plant response rating ([9]; postemergence) | Barnyardgrass plant response rating ([10]; postemergence) | Galium plant response rating ([11]; postemergence) | Ryegrass, Italian plant response rating ([12]; postemergence) | Pigweed plant response rating (0 to 100 scale, 0 is no effect, 100 is complete control) ([13]; Preemergence) | Kochia plant response rating (0 to 100 scale, 0 is no effect, 100 is complete control) (Kochia (Kochia scoparia) [14]; Preemergence) | Ragweed plant response rating (0 to 100 scale, 0 is no effect, 100 is complete control) ([15]; Preemergence) | Foxtail, Giant plant response rating (0 to 100 scale, 0 is no effect, 100 is complete control) ([16]; Preemergence) | Barnyardgrass plant response rating (0 to 100 scale, 0 is no effect, 100 is complete control) ([17]; Preemergence) | Ryegrass, Italian plant response rating (0 to 100 scale, 0 is no effect, 100 is complete control) ([18]; Preemergence) | other results
1 | CN1CC(c2ccc(C(F)(F)F)cc2F)C(C(=O)Nc2ccc(F)cc2F)C1=O (stereo not drawn) [Compound 474] | 80 | 0 | 30 | 0 | 30 | 50 | 30 | 0 | 0 | 0 | 90 | 90 | 40 | 20 | 90 | 70 | 20 | 90 | 90 | 50 | Plant response rating, Pigweed [4, 19]: 30; Plant response rating, Kochia (Kochia (Kochia scoparia) [5]; [19]): 60; Plant response rating, Blackgrass [6, 20]: 50; Plant response rating, Corn (corn (Zea mays); [20]): 20; Plant response rating, Ragweed [7, 19]: 0; Plant response rating, Wheat [8, 19]: 30; Plant response rating, Foxtail, Giant [9, 19]: 90; Plant response rating, Barnyardgrass [10, 20]: 90; Plant response rating, Galium [11, 19]: 50; Plant response rating, Ryegrass, Italian [12, 19]: 50; Plant response rating, Pigweed [13, 21]: 30; Plant response rating, Kochia (Kochia (Kochia scoparia) [14]; [22]): 60; Plant response rating, Ragweed [15, 21]: 0; Plant response rating, Foxtail, Giant [16, 22]: 90; Plant response rating, Barnyardgrass [17, 22]: 90; Plant response rating, Ryegrass, Italian [18, 21]: 0
2 | O=C1NCC(c2ccc(C(F)(F)F)cc2F)C1C(=O)Nc1cccc(F)c1F (stereo not drawn) [Compound 475] | 100 | 0 | 20 | 15 | 50 | 40 | 30 | 0 | 20 | 0 | 90 | 90 | 50 | 20 | 90 | 70 | 60 | 90 | 90 | 40 | Plant response rating, Pigweed [4, 19]: 70; Plant response rating, Kochia (Kochia (Kochia scoparia) [5]; [19]): 60; Plant response rating, Blackgrass [6, 20]: 40; Plant response rating, Corn (corn (Zea mays); [20]): 60; Plant response rating, Ragweed [7, 19]: 30; Plant response rating, Wheat [8, 19]: 30; Plant response rating, Foxtail, Giant [9, 19]: 90; Plant response rating, Barnyardgrass [10, 20]: 90; Plant response rating, Galium [11, 19]: 60; Plant response rating, Ryegrass, Italian [12, 19]: 30; Plant response rating, Pigweed [13, 21]: 60; Plant response rating, Kochia (Kochia (Kochia scoparia) [14]; [22]): 70; Plant response rating, Ragweed [15, 21]: 50; Plant response rating, Foxtail, Giant [16, 22]: 90; Plant response rating, Barnyardgrass [17, 22]: 90; Plant response rating, Ryegrass, Italian [18, 21]: 20
3 | CN1CC(c2cccc(Br)c2)C(C(=O)Nc2cccc(F)c2F)C1=O (stereo not drawn) [Compound 520] | 100 | 0 | 65 | 0 | 40 | 60 | 70 | 60 | 30 | 50 | 80 | 90 | 60 | 40 | 80 | 70 | 50 | 90 | 90 | 50 | Plant response rating, Pigweed [4, 19]: 50; Plant response rating, Kochia (Kochia (Kochia scoparia) [5]; [19]): 70; Plant response rating, Blackgrass [6, 19]: 70; Plant response rating, Corn (corn (Zea mays); [19]): 70; Plant response rating, Ragweed [7, 19]: 30; Plant response rating, Wheat [8, 19]: 70; Plant response rating, Foxtail, Giant [9, 19]: 80; Plant response rating, Barnyardgrass [10, 19]: 90; Plant response rating, Galium [11, 19]: 60; Plant response rating, Ryegrass, Italian [12, 19]: 80; Plant response rating, Pigweed [13, 21]: 30; Plant response rating, Kochia (Kochia (Kochia scoparia) [14]; [21]): 50; Plant response rating, Ragweed [15, 21]: 0; Plant response rating, Foxtail, Giant [16, 21]: 90; Plant response rating, Barnyardgrass [17, 21]: 90; Plant response rating, Ryegrass, Italian [18, 21]: 30
4 | Cc1c(F)ccc(NC(=O)C2C(=O)NCC2c2cc(F)cc(F)c2)c1F (stereo not drawn) [Compound 461] | 100 | 0 | 60 | 0 | 0 | 0 | 0 | 0 | 0 | 0 | 80 | 80 | 0 | 0 | 0 | 50 | 0 | 90 | 90 | 20 | Plant response rating, Pigweed [4, 20]: 0; Plant response rating, Kochia (Kochia (Kochia scoparia) [5]; [20]): 0; Plant response rating, Blackgrass [6, 20]: 0; Plant response rating, Corn (corn (Zea mays); [20]): 0; Plant response rating, Ragweed [7, 20]: 0; Plant response rating, Wheat [8, 20]: 0; Plant response rating, Foxtail, Giant [9, 20]: 80; Plant response rating, Barnyardgrass [10, 20]: 90; Plant response rating, Galium [11, 20]: 20; Plant response rating, Ryegrass, Italian [12, 20]: 20; Plant response rating, Pigweed [13, 22]: 0; Plant response rating, Kochia (Kochia (Kochia scoparia) [14]; [22]): 0; Plant response rating, Ragweed [15, 22]: 0; Plant response rating, Foxtail, Giant [16, 22]: 90; Plant response rating, Barnyardgrass [17, 22]: 70; Plant response rating, Ryegrass, Italian [18, 22]: 20
